This is an account of results in ChEMBL document CHEMBL4392832, “Surveying heterocycles as amide bioisosteres within a series of mGlu7 NAMs: Discovery of VU6019278” (Bioorg Med Chem Lett, 2019).

The target of data set [1] is Metabotropic glutamate receptor 7 (Rattus norvegicus, UniProt P35400). As to the kind of experiment: Negative allosteric modulation of rat mGlu7 receptor expressed in HEK cells co-expressing Galpha15 assessed as reduction in calcium mobilization incubated for 142 secs prior to glutamate addition for 120 secs followed by L-AP4 addition and measured after 40 secs by Fluo-4 AM dye based fluorescence assay. It counts as functional, cell-based. (In general: Calcium assays in cells follow changes in intracellular calcium, usually with a dye or a luminescent sensor.)
Sequence of Metabotropic glutamate receptor 7 (P35400 whole entry): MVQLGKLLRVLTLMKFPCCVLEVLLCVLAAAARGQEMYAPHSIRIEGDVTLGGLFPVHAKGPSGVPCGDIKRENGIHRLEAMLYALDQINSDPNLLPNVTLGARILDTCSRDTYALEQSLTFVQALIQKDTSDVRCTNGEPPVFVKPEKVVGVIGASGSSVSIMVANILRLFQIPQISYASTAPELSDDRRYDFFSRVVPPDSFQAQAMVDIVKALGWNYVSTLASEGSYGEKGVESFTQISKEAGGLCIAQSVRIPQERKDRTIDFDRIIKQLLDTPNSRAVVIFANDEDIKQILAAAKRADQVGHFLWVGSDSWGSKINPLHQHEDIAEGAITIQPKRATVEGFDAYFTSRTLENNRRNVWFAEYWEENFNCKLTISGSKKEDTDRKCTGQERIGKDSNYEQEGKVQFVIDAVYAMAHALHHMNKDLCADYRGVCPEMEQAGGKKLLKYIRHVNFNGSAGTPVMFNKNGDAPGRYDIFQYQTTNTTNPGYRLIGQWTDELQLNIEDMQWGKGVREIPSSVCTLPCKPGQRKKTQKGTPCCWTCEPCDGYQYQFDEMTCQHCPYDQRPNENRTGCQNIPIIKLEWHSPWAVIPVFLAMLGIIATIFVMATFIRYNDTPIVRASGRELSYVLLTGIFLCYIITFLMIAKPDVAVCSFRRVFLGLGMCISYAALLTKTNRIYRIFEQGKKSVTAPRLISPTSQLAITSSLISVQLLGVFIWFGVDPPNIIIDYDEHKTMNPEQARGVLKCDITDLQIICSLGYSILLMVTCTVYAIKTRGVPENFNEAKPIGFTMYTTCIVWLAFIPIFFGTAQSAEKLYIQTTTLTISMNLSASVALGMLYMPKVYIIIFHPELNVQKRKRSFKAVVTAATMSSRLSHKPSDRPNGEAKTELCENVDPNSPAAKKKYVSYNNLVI

Data set [2] addresses Metabotropic glutamate receptor 7 (Rattus norvegicus) (UniProt P35400). As to the kind of experiment: Negative allosteric modulation of rat mGlu7 receptor expressed in HEK cells co-expressing Galpha15 assessed as minimum L-AP4 response by measuring reduction in calcium mobilization incubated for 142 secs prior to glutamate addition for 120 secs followed by L-AP4 addition and measured after 40 secs by Fluo-4 AM dye based fluorescence assay relative to L-AP4 alone. It counts as functional, cell-based. Details: scale not given: the % may be the effect or the level left; call rule not given here.

A short description of data set [3]: Protein binding in rat plasma assessed as unbound fraction at 5 uM measured after 4 hrs by LC-MS/MS analysis. It counts as ADME, cell-free.
A short description of data set [4]: Brain to plasma permeability coefficient, Kp of compound in rat. The format is ADME, cell-free.
Data set [5] can be described thus: Unbound brain to plasma concentration ratio in rat. The format is ADME, cell-free. Particulars: read-out: K(p,uu,brain).
A short description of data set [6]: Protein binding in rat brain assessed as unbound fraction at 5 uM measured after 6 hrs by LC-MS/MS analysis. It counts as ADME, tissue-based.
Data set [7] can be described thus: Total drug level in Sprague-Dawley rat brain at 0.2 mg/kg, iv via cassette dosing measured after 0.25 hrs by LC-MS/MS analysis. It counts as ADME, organism-based. Particulars: read-out: Drug uptake.
The nature of data set [8]: Free drug level in Sprague-Dawley rat brain at 0.2 mg/kg, iv via cassette dosing measured after 0.25 hrs by LC-MS/MS analysis. It counts as ADME, organism-based. Particulars: in vivo.
Data set [9] concerns the target Metabotropic glutamate receptor 1 (Homo sapiens, UniProt Q13255). As to the kind of experiment: Negative allosteric modulation of mGlu1 receptor (unknown origin).
The target of data set [10] is Metabotropic glutamate receptor 2 (Homo sapiens, UniProt Q14416). As to the kind of experiment: Negative allosteric modulation of mGlu2 receptor (unknown origin).
Data set [11] concerns the target Metabotropic glutamate receptor 3 (Homo sapiens, UniProt Q14832). As to the kind of experiment: Negative allosteric modulation of mGlu3 receptor (unknown origin).
The target in data set [12] is Metabotropic glutamate receptor 4 (Homo sapiens, UniProt Q14833). As to the kind of experiment: Negative allosteric modulation of mGlu4 receptor (unknown origin).
Sequence of Metabotropic glutamate receptor 4 (Q14833 whole entry): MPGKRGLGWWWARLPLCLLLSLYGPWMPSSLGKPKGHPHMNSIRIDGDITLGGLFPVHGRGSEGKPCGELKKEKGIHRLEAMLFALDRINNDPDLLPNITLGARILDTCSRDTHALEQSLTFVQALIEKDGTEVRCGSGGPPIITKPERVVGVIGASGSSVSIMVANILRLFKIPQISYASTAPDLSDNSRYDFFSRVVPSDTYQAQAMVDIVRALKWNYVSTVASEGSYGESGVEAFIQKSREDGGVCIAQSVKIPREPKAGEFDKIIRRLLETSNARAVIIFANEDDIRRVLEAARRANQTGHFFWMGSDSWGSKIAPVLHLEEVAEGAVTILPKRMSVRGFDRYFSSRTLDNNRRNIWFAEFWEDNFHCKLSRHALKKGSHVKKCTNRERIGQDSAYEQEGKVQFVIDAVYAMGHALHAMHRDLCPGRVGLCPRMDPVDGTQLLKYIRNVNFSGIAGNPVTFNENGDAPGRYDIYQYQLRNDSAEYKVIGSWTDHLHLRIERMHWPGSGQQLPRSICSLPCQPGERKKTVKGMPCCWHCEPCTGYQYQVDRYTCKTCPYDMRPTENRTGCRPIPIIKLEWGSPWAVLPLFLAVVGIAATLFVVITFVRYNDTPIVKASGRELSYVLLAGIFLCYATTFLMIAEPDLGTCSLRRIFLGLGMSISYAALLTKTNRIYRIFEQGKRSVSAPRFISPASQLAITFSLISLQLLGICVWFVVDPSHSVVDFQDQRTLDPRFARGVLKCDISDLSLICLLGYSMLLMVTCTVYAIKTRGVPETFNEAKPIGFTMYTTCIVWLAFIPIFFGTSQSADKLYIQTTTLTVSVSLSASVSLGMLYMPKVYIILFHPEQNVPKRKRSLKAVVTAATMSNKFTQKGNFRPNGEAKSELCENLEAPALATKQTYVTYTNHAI
Data set [13] deals with Metabotropic glutamate receptor 5 (Homo sapiens, UniProt P41594). As to the kind of experiment: Negative allosteric modulation of mGlu5 receptor (unknown origin).
For data set [14], the target named is Metabotropic glutamate receptor 6 (Homo sapiens, UniProt O15303). As to the kind of experiment: Negative allosteric modulation of mGlu6 receptor (unknown origin).
The target of data set [15] is Metabotropic glutamate receptor 8 (Homo sapiens, UniProt O00222). As to the kind of experiment: Negative allosteric modulation of mGlu8 receptor (unknown origin).
Sequence of Metabotropic glutamate receptor 8 (O00222 whole entry): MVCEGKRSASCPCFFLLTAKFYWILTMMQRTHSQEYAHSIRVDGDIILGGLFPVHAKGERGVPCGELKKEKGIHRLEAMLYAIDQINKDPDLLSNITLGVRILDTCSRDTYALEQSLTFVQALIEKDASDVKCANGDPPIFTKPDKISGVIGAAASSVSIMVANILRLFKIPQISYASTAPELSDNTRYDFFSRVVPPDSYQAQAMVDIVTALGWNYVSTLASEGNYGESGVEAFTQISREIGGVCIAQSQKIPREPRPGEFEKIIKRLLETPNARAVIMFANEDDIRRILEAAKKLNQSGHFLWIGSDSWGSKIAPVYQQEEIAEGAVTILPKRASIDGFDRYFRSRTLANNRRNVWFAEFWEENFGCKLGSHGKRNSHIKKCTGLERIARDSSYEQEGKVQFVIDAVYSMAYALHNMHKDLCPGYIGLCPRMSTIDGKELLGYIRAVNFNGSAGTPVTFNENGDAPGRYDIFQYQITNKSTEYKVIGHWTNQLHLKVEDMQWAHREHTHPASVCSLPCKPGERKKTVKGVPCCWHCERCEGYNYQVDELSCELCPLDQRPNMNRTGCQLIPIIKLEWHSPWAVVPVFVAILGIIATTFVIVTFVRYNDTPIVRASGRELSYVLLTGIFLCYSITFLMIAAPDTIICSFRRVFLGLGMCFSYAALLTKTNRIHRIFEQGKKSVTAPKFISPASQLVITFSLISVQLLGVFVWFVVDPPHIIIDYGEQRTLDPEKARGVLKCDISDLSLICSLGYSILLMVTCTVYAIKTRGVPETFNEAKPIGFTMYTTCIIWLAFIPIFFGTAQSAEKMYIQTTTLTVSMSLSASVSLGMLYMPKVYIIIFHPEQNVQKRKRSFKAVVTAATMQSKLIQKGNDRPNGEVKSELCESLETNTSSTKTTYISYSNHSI

Sequence of Metabotropic glutamate receptor 7 (Rattus norvegicus) (P35400 whole entry): as the sequence (P35400 whole entry) above
Sequence of Metabotropic glutamate receptor 1 (Q13255 whole entry): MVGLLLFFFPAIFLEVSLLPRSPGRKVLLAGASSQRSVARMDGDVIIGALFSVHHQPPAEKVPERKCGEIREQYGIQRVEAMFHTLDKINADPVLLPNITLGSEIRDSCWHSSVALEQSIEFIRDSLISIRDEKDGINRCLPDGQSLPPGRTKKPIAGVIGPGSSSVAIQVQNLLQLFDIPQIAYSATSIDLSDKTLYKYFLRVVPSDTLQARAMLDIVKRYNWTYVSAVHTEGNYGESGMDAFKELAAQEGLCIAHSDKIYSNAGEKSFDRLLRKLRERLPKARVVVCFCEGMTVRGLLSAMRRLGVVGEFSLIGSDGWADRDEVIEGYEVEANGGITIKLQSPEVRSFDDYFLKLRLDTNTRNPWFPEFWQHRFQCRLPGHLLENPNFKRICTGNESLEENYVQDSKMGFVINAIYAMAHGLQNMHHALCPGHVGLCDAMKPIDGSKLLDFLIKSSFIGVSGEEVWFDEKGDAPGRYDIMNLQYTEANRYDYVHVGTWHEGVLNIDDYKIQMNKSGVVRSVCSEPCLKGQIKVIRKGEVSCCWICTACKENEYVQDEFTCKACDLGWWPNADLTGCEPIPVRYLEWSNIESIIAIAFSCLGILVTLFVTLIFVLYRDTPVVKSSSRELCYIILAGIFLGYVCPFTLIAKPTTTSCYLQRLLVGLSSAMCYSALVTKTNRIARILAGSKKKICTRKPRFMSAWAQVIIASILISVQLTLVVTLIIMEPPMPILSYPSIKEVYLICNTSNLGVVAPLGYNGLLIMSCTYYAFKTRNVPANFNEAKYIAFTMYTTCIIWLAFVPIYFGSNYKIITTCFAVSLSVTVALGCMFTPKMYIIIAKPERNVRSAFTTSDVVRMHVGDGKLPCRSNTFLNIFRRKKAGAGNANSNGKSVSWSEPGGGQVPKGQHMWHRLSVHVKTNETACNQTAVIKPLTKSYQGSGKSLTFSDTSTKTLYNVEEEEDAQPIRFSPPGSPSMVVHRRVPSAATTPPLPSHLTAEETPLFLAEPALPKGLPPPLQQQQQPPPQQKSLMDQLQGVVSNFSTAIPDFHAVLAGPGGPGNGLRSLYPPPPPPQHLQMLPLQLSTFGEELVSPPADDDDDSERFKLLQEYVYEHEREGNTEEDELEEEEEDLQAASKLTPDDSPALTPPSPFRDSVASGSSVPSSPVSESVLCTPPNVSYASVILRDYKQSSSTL
Sequence of Metabotropic glutamate receptor 3 (Q14832 whole entry): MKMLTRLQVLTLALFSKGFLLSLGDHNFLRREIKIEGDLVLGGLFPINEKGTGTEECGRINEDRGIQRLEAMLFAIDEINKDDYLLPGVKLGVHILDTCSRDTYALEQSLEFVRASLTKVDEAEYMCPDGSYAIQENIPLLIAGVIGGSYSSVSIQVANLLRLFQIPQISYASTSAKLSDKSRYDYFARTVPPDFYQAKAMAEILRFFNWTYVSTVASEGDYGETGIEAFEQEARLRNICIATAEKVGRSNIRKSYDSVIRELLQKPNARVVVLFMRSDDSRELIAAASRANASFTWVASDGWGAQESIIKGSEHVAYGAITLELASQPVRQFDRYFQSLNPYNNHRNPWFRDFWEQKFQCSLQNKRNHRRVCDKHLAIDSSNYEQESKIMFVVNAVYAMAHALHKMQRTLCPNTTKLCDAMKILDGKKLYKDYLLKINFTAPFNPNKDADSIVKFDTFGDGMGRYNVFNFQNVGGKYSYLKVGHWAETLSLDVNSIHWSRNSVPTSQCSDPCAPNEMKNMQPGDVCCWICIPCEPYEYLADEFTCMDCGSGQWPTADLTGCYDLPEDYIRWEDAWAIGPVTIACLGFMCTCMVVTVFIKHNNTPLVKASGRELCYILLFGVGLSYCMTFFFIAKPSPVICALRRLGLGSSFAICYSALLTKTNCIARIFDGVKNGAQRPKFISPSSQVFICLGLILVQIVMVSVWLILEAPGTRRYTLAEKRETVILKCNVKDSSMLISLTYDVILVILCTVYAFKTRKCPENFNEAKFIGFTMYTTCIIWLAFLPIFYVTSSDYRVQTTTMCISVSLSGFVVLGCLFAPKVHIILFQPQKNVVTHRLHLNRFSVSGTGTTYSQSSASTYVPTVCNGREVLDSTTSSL

One may read the IC50 as the concentration at which inhibition is half-maximal. `COc1ccc(-c2nsc(-c3cc(OC(F)(F)F)ccc3-n3cncn3)n2)cc1OC`: the 50% inhibitory concentration (IC50) in data set [1] (read-out: IC50) was not below 10 µM. Also, the Activity in [2] amounted to 41.5%.
The like results for `COc1ccc(-c2cnc(-c3cc(OC(F)(F)F)ccc3-n3cncn3)o2)cc1OC` were, in that order, 2.08 µM and 36.5%.
For the molecule `FC(F)(F)Oc1ccc(-n2cncn2)c(-c2nnc(-c3ccc4c(c3)OCO4)o2)c1`, in data set [1] (read-out: IC50), the half-maximal inhibitory concentration (IC50) is more than 30 µM.
For the molecule `COc1cc(-c2nnc(-c3cc(OC(F)(F)F)ccc3-n3cncn3)o2)ccc1OC1CCC1`, the IC50 in data set [1] (read-out: IC50) was determined as 1.55 µM. Also, in data set [2], the Activity was determined as 10.4%.
For the molecule `COc1ccc(-c2nnc(-c3cc(OC(F)(F)F)ccc3-c3cccnc3)o2)cc1OC`, the IC50 in data set [1] (read-out: IC50) was more than 30 µM.
Turning to `COc1ccc(-c2nnc(-c3cc(OC(F)(F)F)ccc3-c3cn[nH]c3)o2)cc1OC`, the IC50 in data set [1] (read-out: IC50) was 2.24 µM. The Activity in data set [2] came to 10.3%.
On to `COc1ccc(-c2nnc(-c3cc(OC(F)(F)F)ccc3-n3cncn3)o2)cn1`, for which the IC50 in [1] (read-out: IC50) is more than 30 µM.
For `COc1ccc(-c2nnc(-c3cc(OC(F)(F)F)ccc3N3CCCCC3)o2)cc1OC`, the IC50 in data set [1] (read-out: IC50) came out at 5.86 µM. In data set [2], the Activity came to 65.4%.
Take `FC(F)(F)Oc1ccc(-n2cncn2)c(-c2nnc(-c3ccc4c(c3)OCCO4)o2)c1`: in [1] (read-out: IC50), the IC50 was more than 30 µM.
As for `COc1ccc(-c2nnc(-c3cc(OC(F)(F)F)ccc3-n3cncn3)o2)c(F)c1F`, in data set [1] (read-out: IC50), the IC50 was more than 30 µM.
In the case of `COc1ccc(-c2noc(-c3cc(OC(F)(F)F)ccc3-n3cncn3)n2)cc1OC`, in data set [1] (read-out: IC50), the IC50 was 1.32 µM. In data set [2], the Activity came out at 14.5%.
Turning to `COc1ccc(-c2coc(-c3cc(OC(F)(F)F)ccc3-n3cncn3)n2)cc1OC`, in data set [1] (read-out: IC50), the IC50 stood at 7.63 µM. In addition, the Activity in data set [2] is 21.1%.
The like results for `COc1ccc(-c2cn(-c3cc(OC(F)(F)F)ccc3-n3cncn3)nn2)cc1OC` were, in that order, not below 10 µM and 32.4%.
The like results for `COc1ccc(-c2nnc(-c3cc(OC(F)(F)F)ccc3N3CCOCC3)o2)cc1OC` were, in that order, 1.18 µM and 23.1%.
Take `COc1ccc(-c2ccn3c(-c4cc(OC(F)(F)F)ccc4-n4cncn4)nnc3c2)cc1OC`: the IC50 result in [1] is “Not Active”.
Usually fraction unbound stands for free concentration divided by total concentration. The term Kp denotes tissue or fluid exposure divided by exposure in the circulation. As to `COc1cc(-c2nnc(-c3cc(OC(F)(F)F)ccc3-n3cncn3)o2)ccc1OCC1CC1`, the IC50 in data set [1] (read-out: IC50) was found to be 1.31 µM. Also, the Activity in [2] is 13.2%. Further, in data set [3], the fraction unbound at 4 h, 5 µM turned out to be 0.038. The molecule also showed a Kp in data set [4] of 2. For the same molecule, in [5], the Kp uu turned out to be 0.43.
Regarding `COc1ccc(-c2nnc(-c3cc(OC(F)(F)F)ccc3N3CCN(C)CC3)o2)cc1OC`, the IC50 in data set [1] (read-out: IC50) is more than 30 µM.
Regarding `COc1ccc(-c2nn3cc(-c4cc(OC(F)(F)F)ccc4-n4cncn4)nc3s2)cc1OC`, in data set [1], the IC50 result is “Not Active”.
`COc1ccc(-c2nnc(-c3cc(OC(F)(F)F)ccc3-n3cncn3)o2)cc1OC`: in [1] (read-out: IC50), the IC50 was found to be 1.58 µM. Besides, the Activity in [2] turned out to be 7.1%.
In the case of `COc1ccc(-c2nnc(-c3cc(OC(F)(F)F)ccc3N3CCCC3)o2)cc1OC`, the IC50 in [1] (read-out: IC50) was more than 30 µM.
Same read-out and setting: to `FC(F)(F)Oc1ccc(-n2cncn2)c(-c2nnc(-c3ccc4c(c3)OC(F)(F)O4)o2)c1` belongs more than 30 µM.
`COc1ccc(-c2nnc(-c3cc(OC(F)(F)F)ccc3-c3cscn3)o2)cc1OC`: the IC50 in [1] (read-out: IC50) amounted to 3.53 µM. The Activity in data set [2] turned out to be 49.2%.
As to `COc1ccc(-c2nnc(-c3cc(OC(F)(F)F)ccc3-c3ccnnc3)o2)cc1OC`, the IC50 in [1] (read-out: IC50) is not below 10 µM. Moreover, in data set [2], the Activity was found to be 27.6%.
For `COc1cc(-c2nnc(-c3cc(OC(F)(F)F)ccc3-n3cncn3)o2)cc(F)c1OC`, the IC50 in [1] (read-out: IC50) is more than 30 µM.
With `COc1ccc(-c2nnc(-c3cc(OC(F)(F)F)ccc3-c3ccnn3C)o2)cc1OC`, the Activity in data set [2] turned out to be 20.6%.
For the molecule `COc1ccc(-c2nnc(-c3cc(OC(F)(F)F)ccc3-c3ccncc3)o2)cc1OC`, in data set [1] (read-out: IC50), the half-inhibitory concentration (IC50) is not below 10 µM. Also, the Activity in [2] amounted to 27.9%.
The like results for `COc1ccc(-c2nc(-c3cc(OC(F)(F)F)ccc3-n3cncn3)no2)cc1OC` were, in that order, 2.39 µM and 8.4%.
On to `COc1ccc(-c2nnc(-c3cc(OC(F)(F)F)ccc3-n3cncn3)o2)cc1F`, for which the IC50 in data set [1] (read-out: IC50) is more than 30 µM.
Consider `COc1ccc(-c2nnnn2-c2cc(OC(F)(F)F)ccc2-n2cncn2)cc1OC`, for which the 50% inhibitory concentration (IC50) entry in data set [1] was “Not Active”.
Regarding `COc1cc(F)c(-c2nnc(-c3cc(OC(F)(F)F)ccc3-n3cncn3)o2)cc1OC`, the IC50 in data set [1] (read-out: IC50) was not below 10 µM. In data set [2], the Activity was found to be 72.8%.
Regarding `COc1ccc(-c2ccc3nnc(-c4cc(OC(F)(F)F)ccc4-n4cncn4)n3n2)cc1OC`, the IC50 entry in data set [1] is on record as “Not Active”.
On to `COc1cc(-c2nnc(-c3cc(OC(F)(F)F)ccc3-n3cncn3)o2)ccc1F`, for which the IC50 in [1] (read-out: IC50) is more than 30 µM.
As for `COc1ccc(-c2nnc3sc(-c4cc(OC(F)(F)F)ccc4-n4cncn4)nn23)cc1OC`, the IC50 result in data set [1] is “Not Active”.
Regarding `COc1ccc(-c2nnc(-c3cc(OC(F)(F)F)ccc3-c3cnn(C)c3)o2)cc1OC`, the IC50 in data set [1] (read-out: IC50) was more than 30 µM.
Regarding `COc1ccc(-c2nnc(-c3cc(OC(F)(F)F)ccc3-n3ccnc3)o2)cc1OC`, the IC50 in data set [1] (read-out: IC50) is 0.57 µM; in [9] it was more than 10 µM; in data set [10], more than 10 µM; in data set [11], more than 10 µM; in data set [12] it was more than 10 µM; in data set [13] it was more than 10 µM. The half-maximal inhibitory concentration (IC50) in data set [14] and in [15] was more than 10 µM throughout. Also, in data set [2], the Activity is 6.3%. For the same molecule, the Fu in [3] (4 h, 5 µM) is recorded as 0.1. The Kp in [4] amounted to 4.9. Further, in data set [5], the Kp uu is 0.65. In [6], the fraction unbound at 6 h, 5 µM is 0.013. Moreover, the concentration at 0.25 h in [7] was 456 nM. In addition, in [8], the “Drug uptake(free)” value was 6 nM.
`COc1cc(-c2nnc(-c3cc(OC(F)(F)F)ccc3-n3cncn3)o2)ccn1`: the IC50 in data set [1] (read-out: IC50) was not below 10 µM. Also, the Activity in data set [2] was 68.9%.
Take `COc1cc(-c2nnc(-c3cc(OC(F)(F)F)ccc3-n3cncn3)o2)cnc1OC`: in data set [1] (read-out: IC50), the IC50 is 4.38 µM. In [2], the Activity was found to be 13.5%.
In the same order, the values of `COc1ccc(-c2c[nH]c(-c3cc(OC(F)(F)F)ccc3-n3cncn3)n2)cc1OC` are not below 10 µM and 34.2%.
